# Measured values reported in ChEMBL document CHEMBL1201862, “PubChem BioAssay data set” (2004).
#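 Briefly, cells in 96-well plates were exposed to five compound concentrations for 48 h, and endpoints were estimated by linear interpolation. At the GI50, growth is halved.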 The source made the active and inactive calls. Rule as the data show it: active = GI50 up to about 1.1 µM and inactive = higher.
# What was measured:
# Assay in all cases: NCI tumour cell line growth inhibition, 48 h
# 786-0 = tested on: 786-0
# A498 = tested on: A498
# A549 = tested on: A549
# ACHN = tested on: ACHN
# CAKI-1 = tested on: CAKI-1
# CCRF-CEM = tested on: CCRF-CEM
# COLO 205 = tested on: COLO 205
# DLD-1 = tested on: DLD-1
# DMS-114 = tested on: DMS-114
# DMS-273 = tested on: DMS-273
# EKVX = tested on: EKVX
# HCC 2998 = tested on: HCC 2998
# HCT-116 = tested on: HCT-116
# HCT-15 = tested on: HCT-15
# HL-60 = tested on: HL-60
# HOP-18 = tested on: HOP-18
# HOP-62 = tested on: HOP-62
# HT-29 = tested on: HT-29
# IGROV-1 = tested on: IGROV-1
# K562 = tested on: K562
# KM-20L2 = tested on: KM-20L2
# KM12 = tested on: KM12
# LOX IMVI = tested on: LOX IMVI
# LXFL 529 = tested on: LXFL 529
# M14 = tested on: M14
# M19-MEL = tested on: M19-MEL
# MOLT-4 = tested on: MOLT-4
# Malme-3M = tested on: Malme-3M
# NCI-H226 = tested on: NCI-H226
# NCI-H23 = tested on: NCI-H23
# NCI-H460 = tested on: NCI-H460
# NCI-H522 = tested on: NCI-H522
# OVCAR-3 = tested on: OVCAR-3
# OVCAR-4 = tested on: OVCAR-4
# OVCAR-5 = tested on: OVCAR-5
# OVCAR-8 = tested on: OVCAR-8
# RPMI-8226 = tested on: RPMI-8226
# RXF 631 = tested on: RXF 631
# SF-268 = tested on: SF-268
# SF-295 = tested on: SF-295
# SF-539 = tested on: SF-539
# SK-MEL-28 = tested on: SK-MEL-28
# SK-MEL-2 = tested on: SK-MEL-2
# SK-MEL-5 = tested on: SK-MEL-5
# SK-OV-3 = tested on: SK-OV-3
# SN12C = tested on: SN12C
# SNB-19 = tested on: SNB-19
# SNB-75 = tested on: SNB-75
# SNB-78 = tested on: SNB-78
# SR = tested on: SR
# SW-620 = tested on: SW-620
# TK-10 = tested on: TK-10
# U-251 = tested on: U-251
# UACC-257 = tested on: UACC-257
# UACC-62 = tested on: UACC-62
# UO-31 = tested on: UO-31
# XF498 = tested on: XF498
# HOP-92 = tested on: HOP-92
# RXF 393 = tested on: RXF 393
compound,measurement,setting,value
COc1ccc2c(c1)[n+]([O-])c(C(=O)C/C(=N/OCCCc1ccccc1)C(=O)NC13CC4CC(CC(C4)C1)C3)c(C)[n+]2[O-],GI50,786-0,> 100 µM (inactive)
same,GI50,A498,> 100 µM (inactive)
same,GI50,A549,> 100 µM (inactive)
same,GI50,ACHN,> 100 µM (inactive)
same,GI50,CAKI-1,> 100 µM (inactive)
same,GI50,CCRF-CEM,54.8 µM (inactive)
same,GI50,COLO 205,> 100 µM (inactive)
same,GI50,DLD-1,> 100 µM (inactive)
same,GI50,DMS-114,> 100 µM (inactive)
same,GI50,DMS-273,> 100 µM (inactive)
same,GI50,EKVX,> 100 µM (inactive)
same,GI50,HCC 2998,> 100 µM (inactive)
same,GI50,HCT-116,> 100 µM (inactive)
same,GI50,HCT-15,> 100 µM
same,GI50,HL-60,> 100 µM (inactive)
same,GI50,HOP-18,> 100 µM (inactive)
same,GI50,HOP-62,> 100 µM (inactive)
same,GI50,HT-29,> 100 µM (inactive)
same,GI50,IGROV-1,> 100 µM (inactive)
same,GI50,K562,82.8 µM (inactive)
same,GI50,KM-20L2,> 100 µM (inactive)
same,GI50,KM12,> 100 µM (inactive)
same,GI50,LOX IMVI,> 100 µM (inactive)
same,GI50,LXFL 529,> 100 µM (inactive)
same,GI50,M14,> 100 µM (inactive)
same,GI50,M19-MEL,> 100 µM (inactive)
same,GI50,MOLT-4,> 100 µM (inactive)
same,GI50,Malme-3M,> 100 µM (inactive)
same,GI50,NCI-H226,> 100 µM (inactive)
same,GI50,NCI-H23,> 100 µM (inactive)
same,GI50,NCI-H460,> 100 µM (inactive)
same,GI50,NCI-H522,> 100 µM (inactive)
same,GI50,OVCAR-3,> 100 µM (inactive)
same,GI50,OVCAR-4,> 100 µM (inactive)
same,GI50,OVCAR-5,> 100 µM (inactive)
same,GI50,OVCAR-8,> 100 µM (inactive)
same,GI50,RPMI-8226,> 100 µM (inactive)
same,GI50,RXF 631,> 100 µM (inactive)
same,GI50,SF-268,> 100 µM (inactive)
same,GI50,SF-295,> 100 µM (inactive)
same,GI50,SF-539,> 100 µM (inactive)
same,GI50,SK-MEL-28,> 100 µM (inactive)
same,GI50,SK-MEL-2,> 100 µM (inactive)
same,GI50,SK-MEL-5,> 100 µM (inactive)
same,GI50,SK-OV-3,> 100 µM (inactive)
same,GI50,SN12C,> 100 µM (inactive)
same,GI50,SNB-19,> 100 µM (inactive)
same,GI50,SNB-75,> 100 µM (inactive)
same,GI50,SNB-78,> 100 µM (inactive)
same,GI50,SR,> 100 µM (inactive)
same,GI50,SW-620,> 100 µM (inactive)
same,GI50,TK-10,> 100 µM (inactive)
same,GI50,U-251,> 100 µM (inactive)
same,GI50,UACC-257,> 100 µM (inactive)
same,GI50,UACC-62,> 100 µM (inactive)
same,GI50,UO-31,> 100 µM (inactive)
same,GI50,XF498,> 100 µM (inactive)
CC(C)(C)OC(=O)N[C@H]1CC(O)c2ccccc2N(CC(=O)O)C1=O (stereo not given in full),GI50,786-0,> 100 µM (inactive)
same,GI50,A549,> 100 µM (inactive)
same,GI50,ACHN,> 100 µM (inactive)
same,GI50,CAKI-1,> 100 µM (inactive)
same,GI50,CCRF-CEM,> 100 µM (inactive)
same,GI50,COLO 205,> 100 µM (inactive)
same,GI50,DLD-1,> 100 µM (inactive)
same,GI50,DMS-114,> 100 µM (inactive)
same,GI50,DMS-273,> 100 µM (inactive)
same,GI50,EKVX,> 100 µM (inactive)
same,GI50,HCC 2998,> 100 µM (inactive)
same,GI50,HCT-116,> 100 µM (inactive)
same,GI50,HCT-15,> 100 µM
same,GI50,HL-60,> 100 µM (inactive)
same,GI50,HOP-18,> 100 µM (inactive)
same,GI50,HOP-62,> 100 µM (inactive)
same,GI50,HOP-92,> 100 µM (inactive)
same,GI50,HT-29,> 100 µM (inactive)
same,GI50,IGROV-1,> 100 µM (inactive)
same,GI50,KM-20L2,> 100 µM (inactive)
same,GI50,KM12,> 100 µM (inactive)
same,GI50,LOX IMVI,> 100 µM (inactive)
same,GI50,LXFL 529,> 100 µM (inactive)
same,GI50,M14,> 100 µM (inactive)
same,GI50,M19-MEL,> 100 µM (inactive)
same,GI50,MOLT-4,> 100 µM (inactive)
same,GI50,Malme-3M,> 100 µM (inactive)
same,GI50,NCI-H226,> 100 µM (inactive)
same,GI50,NCI-H23,> 100 µM (inactive)
same,GI50,NCI-H460,> 100 µM (inactive)
same,GI50,NCI-H522,> 100 µM (inactive)
same,GI50,OVCAR-3,> 100 µM (inactive)
same,GI50,OVCAR-4,> 100 µM (inactive)
same,GI50,OVCAR-8,> 100 µM (inactive)
same,GI50,RXF 393,> 100 µM (inactive)
same,GI50,RXF 631,> 100 µM (inactive)
same,GI50,SF-268,> 100 µM (inactive)
same,GI50,SF-295,> 100 µM (inactive)
same,GI50,SF-539,> 100 µM (inactive)
same,GI50,SK-MEL-28,> 100 µM (inactive)
same,GI50,SK-MEL-2,> 100 µM (inactive)
same,GI50,SK-MEL-5,> 100 µM (inactive)
same,GI50,SK-OV-3,> 100 µM (inactive)
same,GI50,SN12C,> 100 µM (inactive)
same,GI50,SNB-19,> 100 µM (inactive)
same,GI50,SNB-75,> 100 µM (inactive)
same,GI50,SR,> 100 µM (inactive)
same,GI50,SW-620,> 100 µM (inactive)
same,GI50,TK-10,> 100 µM (inactive)
same,GI50,UACC-257,> 100 µM (inactive)
same,GI50,UACC-62,> 100 µM (inactive)
same,GI50,UO-31,> 100 µM (inactive)
same,GI50,XF498,> 100 µM (inactive)
